Assay results published in ChEMBL document CHEMBL1125167, “Synthesis and broad-spectrum antiviral activity of 7,8-dihydro-7-methyl-8-thioxoguanosine” (1990).

Key:
[1] = test system: Banzi virus; assay: Indicates the number of animals that died and survivors lived through 21 days at 25 mg/kg against Banzi virus; type: functional
[2] = test system: Banzi virus; assay: Indicates the number of animals that died and survivors lived through 21 days at 50 mg/kg against Banzi virus; type: functional
[3] = test system: Coronaviridae; assay: Indicates the number of animals that died and survivors lived through 21 days at 100 mg/kg rat corona virus; type: functional, Coronavirus
[4] = test system: Encephalomyocarditis virus; assay: Indicates the number of animals that died and survivors lived through 21 days at 50 mg/kg against EMC virus; type: functional
[5] = test system: Encephalomyocarditis virus; assay: Indicates the number of animals that died and survivors lived through 21 days at 25 mg/kg against EMC virus; type: functional
[6] = test system: San Angelo virus; assay: Indicates the number of animals that died and survivors lived through 21 days at 25 mg/kg against San Angelo virus; type: functional
[7] = test system: San Angelo virus; assay: Indicates the number of animals that died and survivors lived through 21 days at 50 mg/kg against San Angelo virus; type: functional
[8] = test system: Semliki Forest virus; assay: Indicates the number of animals that died and survivors lived through 21 days at 25 mg/kg against Forest virus; type: functional
[9] = test system: Semliki Forest virus; assay: Indicates the number of animals that died and survivors lived through 21 days at 50 mg/kg against Forest virus; type: functional
[10] = Evaluated for its effect by the ratio between percent survivors and the total animals taken against Banzi virus infection at a dose of 25 mg/kg half-daily intraperitoneal doses at 24 and 18 hours before the virus inoculation; 11/12; type: functional
[11] = Evaluated for its effect by the ratio between percent survivors and the total animals taken against Banzi virus infection at a dose of 50 mg/kg half-daily intraperitoneal doses at 24 and 18 hours before the virus inoculation; 10/12; type: functional
[12] = Evaluated for its effect by the ratio between percent survivors and the total animals taken against EMC virus infection at a dose of 25 mg/kg half-daily intraperitoneal doses at 24 and 18 hours before the virus inoculation; 6/12; type: functional
[13] = Evaluated for its effect by the ratio between percent survivors and the total animals taken against EMC virus infection at a dose of 50 mg/kg half-daily intraperitoneal doses at 24 and 18 hours before the virus inoculation; 9/12; type: functional
[14] = Evaluated for its effect by the ratio between percent survivors and the total animals taken against San Angelo virus infection at a dose of 25 mg/kg half-daily intraperitoneal doses at 24 and 18 hours before the virus inoculation; 9/12; type: functional
[15] = Evaluated for its effect by the ratio between percent survivors and the total animals taken against San Angelo virus infection at a dose of 50 mg/kg half-daily intraperitoneal doses at 24 and 18 hours before the virus inoculation; 10/12; type: functional
[16] = Evaluated for its effect by the ratio between percent survivors and the total animals taken against Forest virus infection at a dose of 25 mg/kg half-daily intraperitoneal doses at 24 and 18 hours before the virus inoculation; 9/12; type: functional
[17] = Evaluated for its effect by the ratio between percent survivors and the total animals taken against Forest virus infection at a dose of 50 mg/kg half-daily intraperitoneal doses at 24 and 18 hours before the virus inoculation; 10/12; type: functional
[18] = Evaluated for its effect by the ratio between percent survivors and the total animals taken against rat corna virus infection at a dose of 100 mg/kg half-daily intraperitoneal doses at 24 and 18 hours before the virus inoculation; 7/12; type: functional
[19] = Ratio between percent survivors and the total animals taken against EMC virus infection at a dose of 50 mg/kg half-daily intraperitoneal doses at 24 and 18 hours before the virus inoculation; 9/12; type: functional
[20] = Ratio between percent survivors and the total animals taken against San Angelo virus infection at a dose of 25 mg/kg half-daily intraperitoneal doses at 24 and 18 hours before the virus inoculation; 11/12; type: functional
[21] = Ratio between percent survivors and the total animals taken against San Angelo virus infection at a dose of 50 mg/kg half-daily intraperitoneal doses at 24 and 18 hours before the virus inoculation; 11/12; type: functional
[22] = Ratio between percent survivors and the total animals taken against Forest virus infection at a dose of 25 mg/kg half-daily intraperitoneal doses at 24 and 18 hours before the virus inoculation; 8/12; type: functional
[23] = Ratio between percent survivors and the total animals taken against Forest virus infection at a dose of 50 mg/kg half-daily intraperitoneal doses at 24 and 18 hours before the virus inoculation; 9/12; type: functional
[24] = Ratio between percent survivors and the total animals taken against rat corona virus infection at a dose of 100 mg/kg half-daily intraperitoneal doses at 24 and 18 hours before the virus inoculation; 9/12; type: functional
[25] = Ratio between percent survivors and the total animals taken against Banzi virus infection at a dose of 50 mg/kg half-daily intraperitoneal doses at 24 and 18 hours before the virus inoculation; 12/12; type: functional
[26] = Ratio between percent survivors and the total animals taken against EMC virus infection at a dose of 25 mg/kg half-daily intraperitoneal doses at 24 and 18 hours before the virus inoculation; 8/12; type: functional
[27] = Ratio between percent survivors and the total animals taken against Banzi virus infection at a dose of 25 mg/kg half-daily intraperitoneal doses at 24 and 18 hours before the virus inoculation; 11/12; type: functional

SMILES	Mean survival time [1]	Mean survival time [2]	Mean survival time [3]	Mean survival time [4]	Mean survival time [5]	Mean survival time [6]	Mean survival time [7]	Mean survival time [8]	Mean survival time [9]	further results
Cn1c(=S)n(C2O[C@H](CO)[C@@H](O)[C@H]2O)c2nc(N)nc(O)c21 (stereo partly specified)	9 days	9 days	9.4 days	5.7 days	5.5 days	11.3 days	10.5 days	8 days	9 days	Ratio [10]: 11; Ratio [11]: 10; Ratio [12]: 6; Ratio [13]: 9; Ratio [14]: 9; Ratio [15]: 10; Ratio [16]: 9; Ratio [17]: 10; Ratio [18]: 7
Cn1c(=O)n(C2O[C@H](CO)[C@@H](O)[C@H]2O)c2nc(N)nc(O)c21 (stereo partly specified)	8 days	>21 days	9.7 days	8 days	8.3 days	12 days	10 days	8.7 days	9.7 days	Ratio [19]: 9; Ratio [20]: 11; Ratio [21]: 11; Ratio [22]: 8; Ratio [23]: 9; Ratio [24]: 9; Ratio [25]: 12; Ratio [26]: 8; Ratio [27]: 11
